For the assay, the system named is H358 (KRAS G12C mutant) cells. Kind of assay: Tumor cell proliferation inhibition assay (Cell Titer-Glo, 72 h). The format is cell-based. Conditions: inhibition of tumor cell proliferation, 72 hours with compound, 10% fetal bovine serum; read-out: NCI-H538 IC50(nm). The protocol: The H358 (KRAS G^12C mutant) cells were digested, centrifuged and resuspended, and the cell density was measured with a Scepter automatic cell counter. The cells were diluted to a solution containing 44,000 cells per milliliter, and the density-adjusted cell solution was 90 microliters per well. into a 96-well culture plate. The 96-well plate was placed in a 37° C., 5% CO2 incubator. After the cells were cultured for 24 hours, different concentrations of the compounds to be tested were added. The cells were incubated with the compounds for 72 hours in the presence of 10% fetal bovine serum. Glo Luminescent Cell Viability Assay Kit (see manufacturer's instructions for details) was used to measure ATP content to assess cell growth inhibition. Briefly, 30 μl of Cell Titer-Glo reagent was added to each well, and the plate was shaken for 10 minutes to induce cell lysis. Fluoroskan
Ascent FL (Thermo) assay was used to record the fluorescent signal, and the maximum signal value was obtained from cells treated with dimethyl sulfoxide for 72 hours. The minimum signal value was obtained from the medium alone (the number of cells was zero), and the % inhibition rate=(the maximum signal value compound signal value)/(the maximum signal value—the minimum signal value×100%, and the data were processed using Graphpadprism 5 software. By sigmoid Dose-response curve fitting to calculate the IC50 value. “A” means IC50≤50 nM; “B” means 50<IC50≤500 nM; “C” means 500<IC50≤2000 nM; “D” means 2000 nM<IC50
For orientation: In ATP-based viability assays light output follows the ATP content of the culture.
As usually defined, the IC50 is the concentration at which inhibition is half-maximal. Regarding “7-(8-Chloronaphthalene)-4-(((R)-4-Acryloyl-2-methylpiperazine)-1-yl)-24(1-(N,N-dimethylamino)) methylcyclopropan-1-yl)methoxy)pyridine[2,3-d]lopyrimidine [Compound 23]”, the IC50 was not above 50 nM.

Consider “7-(8-Fluoronaphthyl)-8-fluoro-(((S)-4-(2-fluoroacryloyl)-3-carbonitrileethylpiperazine)-1-yl)-2-((((S)-2,2-difluorotetrahydro-1H-pyrincycline-7a(5H)-yl)methoxy)quinazoline [Compound 66]”, for which the concentration for half-maximal inhibition (IC50) is not above 50 nM.

Regarding `C=C(F)C(=O)N1CCN(c2nc(OC[C@@]34CCCN3C[C@H](F)C4)nc3nc(-c4cccc5cccc(F)c45)ccc23)C[C@@H]1CC#N` [Compound 92, 7-(8-Fluoronaphthyl)-4-(((S)-4-(2-fluoroacryloyl)-3-carbonitrileethylpiperazine)-1-yl)-2-(((2R,7aS)-2-fluorotetrahydro-1H-pyrincycl-7a(5H)-yl)methoxy)pyridine[2,3-d]lopyrimidine], the half-maximal inhibitory concentration (IC50) was not above 50 nM.

Turning to “7-(8-fluoronaphthyl)-8-fluoro-4-(((S)-4-(2-fluoroacryloyl)-3-carbonitrileethylpiperazine)-1-yl)-2-(((2R,7aS)-2-fluorotetrahydro-1H-pyrinyl-7a(5H)-yl)methoxy)quinazoline [Compound 51]”, the IC50 is not above 50 nM.

In the case of “7-(3-Hydroxy-8-fluoronaphthyl)-8-fluoro-4-(((S)-4-acryloyl-3-carbonitrileethylpiperazine)-2-(((S)-2,2-difluorotetrahydro-1H-pyrincyclo-7a(5H)-yl)methoxy)quinazoline [Compound 64]”, the IC50 is not above 50 nM.

With “7-(3-Hydroxy-8-fluoronaphthyl)-8-fluoro-4-(((S)-4-(2-fluoroacryloyl)-3-carbonitrileethylpiperazine)-2-((((S)-2,2-Difluorotetrahydro-1H-pyrincycline-7a(5H)-yl)methoxy)quinazoline [Compound 65]”, the concentration for half-maximal inhibition (IC50) is not above 50 nM.

As to “7-(8-Methylnaphthalene)-4-(((R)-4-Acryloyl-3-carbonitrileethylpiperazine)-1-yl)-24(1-(N,N-Dimethyl)amino)methylcyclopropan-1-yl)methoxy)pyridine[2,3-d]lopyrimidine [Compound 19]”, the IC50 is not above 50 nM.

As for `C=CC(=O)N1CCN(c2nc(OC[C@@H]3CCCN3C)nc3nc(-c4cccc5cccc(F)c45)c(F)cc23)[C@@H](C)C1` [Compound 10], the 50% inhibitory concentration (IC50) is not above 50 nM.

Take `C=CC(=O)N1CCN(c2nc(OC[C@@]34CCCN3CC(F)(F)C4)nc3nc(-c4cccc5cccc(F)c45)ccc23)[C@H](C)C1` [Compound 86, 7-(8-Fluoronaphthyl)-4-(((R)-4-Acryloyl-2-methylpiperazine)-1-yl)-2-(((S)-2,2-difluorotetrakisHydro-1H-pyrincycl-7a(5H)-yl)methoxy)pyridine[2,3-d]lopyrimidine]: the IC50 is not above 50 nM.

For `C=C(F)C(=O)N1CCN(c2nc(OC[C@@]34CCCN3CC(F)(F)C4)nc3nc(-c4cccc5cccc(F)c45)c(F)cc23)C[C@@H]1CC#N` [Compound 83], the IC50 was not above 50 nM.

For `C=C(F)C(=O)N1CCN(c2nc(OC[C@@]34CCCN3C[C@H](F)C4)nc3c(F)c(-c4cccc5cccc(F)c45)c(Cl)cc23)C[C@@H]1CC#N` [Compound 41, 6-Chloro-7-(8-fluoronaphthyl)-8-fluoro-4-(((S)-4-(2-fluoroacryloyl)-3-carbonitrileethylpiperazine)-1-yl)-2-(((2R,7aS)-2-fluorotetrahydro-1H-pyrincycline-7a(5H)-yl)methoxy)quinazoline], the half-maximal inhibitory concentration (IC50) was not above 50 nM.

Take “7-(8-Methylnaphthyl)-8-fluoro-4-(((S)-4-(2-fluoroacryloyl)-3-carbonitrileethylpiperazine)-1-yl)-2-(((S)-2,2-difluorotetrahydro-1H-pyrincyclo-7a(5H)-yl)methoxy)quinazoline [Compound 72]”: the IC50 was not above 50 nM.

For the molecule “7-(8-Methylnaphthalene)-4-(((R)-4-Acryloyl-2-methylpiperazine)-1-yl)-2-(((1-(pyrrolidin-1-yl)methylcyclopropan-1-yl)methoxy)pyridine[2,3-d]lopyrimidine [Compound 17]”, the 50% inhibitory concentration (IC50) is not above 50 nM.

Regarding `C=C(F)C(=O)N1CCN(c2nc(OCC34CCCN3CCC4)nc3c(F)c(-c4cc(O)cc5cccc(F)c45)ccc23)C[C@@H]1CC#N` [Compound 57], the IC50 is not above 50 nM.

With `C=CC(=O)N1CCN(c2nc(OC[C@@]34CCCN3C[C@H](F)C4)nc3nc(-c4cc(O)cc5cccc(F)c45)c(F)cc23)C[C@@H]1CC#N` [Compound 35, 7-(3-Hydroxy-8-fluoronaphthyl)-6-fluoro-4-(((S)-4-acryloyl-3-carbonitrileethylpiperazine)-1-yl)-2-(((2R,7aS)-2-fluorotetrahydro-1H-pyrinyl-7a(5H)-yl)methoxy)pyridine[2,3-d]lopyrimidine], the 50% inhibitory concentration (IC50) was not above 50 nM.

Turning to `C=CC(=O)N1CCN(c2nc(OC[C@@]34CCCN3C[C@H](F)C4)nc3nc(-c4cccc5cccc(F)c45)c(F)cc23)C[C@H]1CC#N` [Compound 25, 7-(8-Fluoronaphthyl)-6-fluoro-4-(((R)-4-acryloyl-3-carbonitrileethylpiperazine)-1-yl)-2-(((2R,7aS)-2-fluorotetrahydro-1H-pyrincycl-7a(5H)-yl)methoxy)pyridine[2,3-d]lopyrimidine], the IC50 was not above 50 nM.

Consider `C=C(F)C(=O)N1CCN(c2nc(OC[C@@]34CCCN3C[C@H](F)C4)nc3c(F)c(-c4cccc5cccc(F)c45)c(Cl)cc23)[C@H](C)C1` [Compound 38, 6-Chloro-7-(8-fluoronaphthyl)-8-fluoro-4-(((R)-4-(2-fluoroacryloyl)-2-methylpiperazine)-1-yl)-2-(((2R,7aS)-2-fluorotetrahydro-1H-pyrinyl-7a(5H)-yl)methoxy)quinazoline], for which the IC50 is not above 50 nM.

Consider `C=C(F)C(=O)N1CCN(c2nc(OC[C@@]34CCCN3C[C@H](F)C4)nc3nc(-c4cc(O)cc5cccc(F)c45)c(F)cc23)C[C@@H]1CC#N` [Compound 33, 7-(3-Hydroxy-8-fluoronaphthyl)-6-fluoro-4-(((S)-4-(2-fluoroacryloyl)-3-carbonitrileethylpiperazine)-1-yl)-2-(((2R,7aS)-2-fluorotetrahydro-1H-pyrincycl-7a(5H)-yl)methoxy)pyridine[2,3-d]lopyrimidine], for which the IC50 is not above 50 nM.

Consider `C=C(F)C(=O)N1CCN(c2nc(OC[C@@]34CCCN3C[C@H](F)C4)nc3nc(-c4cccc5cccc(C)c45)ccc23)C[C@@H]1CC#N` [Compound 93], for which the IC50 is not above 50 nM.

As to “7-(8-Methylnaphthyl)-6-fluoro-4-(((S)-4-(2-fluoro acryloyl)-3-carbonitrileethylpiperazine)-1-yl)-2-(((S)-2,2-difluorotetrahydro-1H-pyrincycl-7a(5H)-yl)methoxy)pyridine[2,3-d]lopyrimidine [Compound 85]”, the half-inhibitory concentration (IC50) was not above 50 nM.

Regarding “7-(8-Fluoronaphthalene)-4-(((R)-4-Acryloyl-2-methylpiperazine)-1-yl)-2-(((1-(pyrrolidin-1-yl)methyl cyclopropan-1-yl)methoxy)pyridine[2,3-d]lopyrimidine [Compound 13]”, the IC50 is not above 50 nM.

Regarding `C=CC(=O)N1CCN(c2nc(OC[C@@]34CCCN3C[C@H](F)C4)nc3c(F)c(-c4cccc5cccc(F)c45)c(Cl)cc23)C[C@@H]1CC#N` [Compound 40, 6-Chloro-7-(8-fluoronaphthyl)-8-fluoro-4-(((S)-4-acryloyl-3-carbonitrileethylpiperazine)-1-yl)-2-(((2R,7aS)-2-fluorotetrahydro-1H-pyrinyl-7a(5H)-yl)methoxy)quinazoline], the IC50 is not above 50 nM.

On to “7-(3-Hydroxy-8-fluoronaphthyl)-8-fluoro-4-(((R)-4-acryloyl-2-methylpiperazine)-1-yl)-2-(((S)-2,2-difluorotetrahydro-1H-pyrincycline-7a(5H)-yl)methoxy)quinazoline [Compound 70]”, for which the IC50 is not above 50 nM.

Consider `C=C(F)C(=O)N1CCN(c2cc(OC[C@@H]3CCCN3C)nc3nc(-c4cccc5cccc(F)c45)c(F)cc23)C[C@@H]1CC#N` [Compound 6], for which the IC50 was not above 50 nM.

Regarding `C=CC(=O)N1CCN(c2nc(OC[C@@]34CCCN3C[C@H](F)C4)nc3nc(-c4cccc5cccc(F)c45)c(F)cc23)[C@H](C)C1` [Compound 26, 7-(8-Fluoronaphthyl)-6-fluoro-4-(((R)-4-acryloyl-2-methylpiperazine)-1-yl)-2-(((2R,7aS)-2-Fluorotetrahydro-1H-pyrincycl-7a(5H)-yl)methoxy)pyridine[2,3-d]lopyrimidine], the IC50 is not above 50 nM.

Turning to “7-(8-Methylnaphthyl)-4-(((R)-4-acryloyl-2-methylpiperazine)-1-yl)-2-(((S)-2,2-difluoro tetrahydro-1H-pyrincycl-7a(5H)-yl)methoxy)pyridine[2,3-d]lopyrimidine [Compound 87]”, the IC50 was not above 50 nM.

In the case of “7-(8-fluoronaphthyl)-8-fluoro-4-(((R)-4-acryloyl-2-methylpiperazine)-1-yl)-2-(((S)-2,2-difluorotetrahydro-1H-pyrincyclo-7a(5H)-yl)methoxy)quinazoline [Compound 59]”, the IC50 is not above 50 nM.

The record behind these values is patent publication US20240182470A1, “KRASG12C MUTANT PROTEIN INHIBITOR, PREARATION AND USE THEREOF” (YA THERAPEUTICS INC, priority 2021, published 2024).
